Experimental findings from patent US8895753B2, “S1P receptor modulating agent” (Meiji Seika Pharma Co., Ltd., priority 2011, dated 2014) are described below.

What is called EC50 is the concentration that produces a half-maximal response.

Where “and” joins values, the source holds several entries; their conditions need not be identical. Equal entries are not always repeated. Bounds are passed on as bounds.

In one data set the target is Human S1P3 receptor (Homo sapiens, UniProt Q99500). As to the kind of experiment: Agonist activity at an S1P3 receptor ([35S]-GTPγS exchange reaction at 1000 nM). The conditions noted are these: read-out: percent of the maximal agonist activity at S1P3 receptor. The data set is classed as biochemical. A digest of the protocol:
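Agonism measured by [35S]-GTPγS exchange in membranes from human S1P3-expressing cells, compound tested at 1000 nM.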

The test system of a further data set is blood lymphocytic cells. As to the kind of experiment: Suppressive effect on circulating lymphocytic cells in a rat. The data set is classed as in vivo. To be noted: 6 hours after administration. The method, then:
Under anesthesia, a femoral artery was cannulated in a 7-11-week old male SD rat (Charles River Laboratories Japan Inc.) that had been reared for more than one week. A vehicle (in case of intravascular administration, 10% PEG300-0.01 M KOH saline was used, and in case of oral administration, 0.5% hydroxymethyl cellulose solution was used) or a test compound was administered intravascularly or by gavage administration. Right before the administration or 2, 4, 6 hours after the administration, the number of blood lymphocytic cells was counted by using an automated hematology analyzer XT-1800i or XT-2000i (Sysmex). The count of lymphocytic cells right before the administration was regarded as 100%, and the dose of the test compound that reduced blood lymphocytic cells by 50% of vehicle-treated group at the point of 6 hours after the administration was calculated as ED50 (mg/kg body weight).

In data set [1] the target is T1, Human S1P4 receptor (Homo sapiens, UniProt O95977).
T1 sequence (O95977 1-384): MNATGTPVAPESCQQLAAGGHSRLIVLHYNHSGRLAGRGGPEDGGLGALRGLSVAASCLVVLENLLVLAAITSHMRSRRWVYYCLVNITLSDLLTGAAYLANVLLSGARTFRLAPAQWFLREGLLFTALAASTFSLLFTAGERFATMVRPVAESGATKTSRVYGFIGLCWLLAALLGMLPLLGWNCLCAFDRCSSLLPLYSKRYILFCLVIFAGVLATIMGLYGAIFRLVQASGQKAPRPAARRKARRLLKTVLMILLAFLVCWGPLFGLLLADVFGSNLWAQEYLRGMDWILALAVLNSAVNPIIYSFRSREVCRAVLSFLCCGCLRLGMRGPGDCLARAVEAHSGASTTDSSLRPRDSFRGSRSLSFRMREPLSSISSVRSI
As to the kind of experiment: Agonist activity at an S1P4 receptor (calcium influx). The format is cell-based. To be noted: at 1000 nM; read-out: activity at S1P4 receptor (elevation of intracellular calcium). The method, then: By using Human S1P4 receptor expressing cells (Multispan Inc. CG1052-1), the elevation of intracellular calcium concentration via agonist activity by the addition of 1000 nM was measured by Fret method (fluorescence resonance energy transfer).
On the technique in general: A change in cytosolic calcium serves as a functional read-out for many receptors and channels.

The target in data set [2] is T2, Human S1P1 receptor (Homo sapiens, UniProt P21453). Description: Agonist activity at an S1P1 receptor ([35S]-GTPγS exchange reaction, membrane fractions). The data set is classed as biochemical. To be noted: read-out: EC50, agonist activity at S1P1 receptor (GTP exchange reaction). The procedure: By using membrane fractions prepared from a human S1P1 receptor expressing cells (Multispan Ltd.), the agonist activity of each test compound was measured by [^35S]-GTPγS exchange reaction in accordance with a standard procedure (Methods in Molecular Biology, Vol. 552, p 143-151 (2009)), and EC50 (nM) of each test compound was computed.
T2 sequence (P21453 whole entry): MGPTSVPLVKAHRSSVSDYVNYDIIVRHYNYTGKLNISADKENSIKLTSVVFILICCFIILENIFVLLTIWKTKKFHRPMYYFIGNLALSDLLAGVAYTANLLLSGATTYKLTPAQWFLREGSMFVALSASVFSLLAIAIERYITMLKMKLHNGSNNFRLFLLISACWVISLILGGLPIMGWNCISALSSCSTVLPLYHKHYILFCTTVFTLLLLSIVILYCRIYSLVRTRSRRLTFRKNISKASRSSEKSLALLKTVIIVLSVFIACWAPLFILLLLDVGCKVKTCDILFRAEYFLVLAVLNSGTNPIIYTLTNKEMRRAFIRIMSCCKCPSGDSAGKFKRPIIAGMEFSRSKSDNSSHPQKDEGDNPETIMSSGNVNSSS

For data set [3], the target named is T2, Human S1P1 receptor. Description: Agonist activity at an S1P1 receptor (reporter assay, EDG1-bla/U2OS cells). Also noted: host or cells: U2OS (EDG1-bla/U2OS). To be noted: S1P maximum response = 100%. The data set is classed as cell-based. A digest of the protocol: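 EDG1-bla/U2OS cells grown 48 h, then exposed to test compound for 5 h at 37 °C; CCF4-AM β-lactamase substrate added for 2 h at room temperature in the dark. Read-out is the 460/530 nm emission ratio (Ex409 nm), normalised to maximal S1P response as 100%; EC50 is the concentration giving 50% of maximal activation.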
(Reporter assays use an easily measured gene product as a stand-in for the process of interest.)

The target of data set [4] is T1, Human S1P4 receptor. As to the kind of experiment: Agonist activity at a S1P4 receptor (reporter assay, EDG6-bla/U2OS cells). The data set is classed as cell-based. The procedure:
Human S1P4 receptor gene recombinant EDG6-bla/U2OS cells (Life Technologies Japan Ltd.) were seeded into each well of a 384-well clear bottom black plate treated with poly-D-lysine at a density of 10000 cells/32 μL/well and cultured at 37° C. in a 5% CO2 incubator for 16 to 24 hours. A culture medium containing each test compound prepared as a 5× concentrate was added at 8 μL/well, and the plate was cultured at 37° C. in a 5% CO2 incubator for 5 hours. The substrate (LiveBLAzer™-FRET B/G substrate (CCF4-AM), Life Technologies Japan Ltd.) prepared as a 6× concentrate was added at 8 μL to each well, and the plate was incubated for 2 hours in the dark. The fluorescence intensity of the test samples was measured using bottom-reading fluorescence microplate reader at one excitation wavelength and 2 wavelengths for fluorescence emission (Ex409 nm, Em460 nm, Em530 nm). The intensity ratio of fluorescence at 460 nm/530 nm was calculated for each well. The maximum response ratio confirmed from the dose response of S1P was expressed as 100%. The concentration of the test compound required to stimulate 50% of its maximal activation was computed as EC50 (nM).

In the next data set the test system is heart rate. As to the kind of experiment: Evaluation of the heart rate in a rat (under consciousness). The data set is classed as in vivo. The conditions noted are these: conscious rat, vascularly administered at 6 mg/kg body weight. The method, then:
Under anesthesia, femoral artery was cannulated in a 7-11-week old male SD rat (Charles River Laboratories Japan Inc.) that had been reared for more than one week. Arterial cannula was connected to a pressure transducer, and under consciousness changes in the heart rate were monitored with a polygraph (Nihon Kohden) up to 4 hours after the vascular administration of the vehicle (10% PEG300-0.01M KOH saline) or the test compounds. The dose that lowered the heart rate by 20% was computed as TD20 (mg/kg body weight).

Chain of Human S1P3 receptor (Q99500 whole entry): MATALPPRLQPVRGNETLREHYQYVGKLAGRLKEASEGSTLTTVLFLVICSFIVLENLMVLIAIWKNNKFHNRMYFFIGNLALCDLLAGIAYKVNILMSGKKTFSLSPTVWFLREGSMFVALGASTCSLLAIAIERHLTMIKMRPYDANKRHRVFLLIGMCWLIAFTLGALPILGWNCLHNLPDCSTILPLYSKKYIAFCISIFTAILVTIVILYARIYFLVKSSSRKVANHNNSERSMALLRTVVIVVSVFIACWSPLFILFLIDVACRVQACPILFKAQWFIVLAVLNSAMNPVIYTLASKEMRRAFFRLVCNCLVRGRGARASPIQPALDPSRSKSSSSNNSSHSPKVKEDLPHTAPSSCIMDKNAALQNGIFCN

Regarding `CC(C)Oc1ccc(-c2cnc(-c3ccc(CN4CC(C(=O)O)C4)cc3)s2)cc1Cl` [Example 3, 1-(4-(5-(3-chloro-4-isopropoxyphenyl)thiazol-2-yl)benzyl)azetidine-3-carboxylic acid], the Emax at 1 µM at Human S1P3 receptor lay within 20 to 50%. Also, the figures for the “ED50, dose reducing blood lymphocytic cells by 50%” value in the data set with blood lymphocytic cells (gavage administration) and with blood lymphocytic cells (vascular administration) were 0.15 mg/kg body weight and 0.016 mg/kg body weight, respectively. Also, the activation at 1 µM on Human S1P4 receptor [1] is less than 20%. The EC50 was no more than 10 nM at Human S1P1 receptor [2]; ≤ 1 nM and 0.41 nM at Human S1P1 receptor [3]; no less than 2000 nM at Human S1P4 receptor [4]. Moreover, the “suppression of the heart rate” value in the data set with heart rate is “not recognized”.
In the case of `CC(C)Oc1ccc(-c2cnc(-c3ccc(CN4CC(C(=O)O)C4)cc3)s2)cc1` [Example 2, 1-(4-(5-(4-isopropoxyphenyl)thiazol-2-yl)benzyl)azetidine-3-carboxylic acid], the Emax at 1 µM on Human S1P3 receptor is less than 20%. Moreover, the “ED50, dose reducing blood lymphocytic cells by 50%” value turned out to be 0.13 mg/kg body weight in the data set on blood lymphocytic cells (gavage administration) and 0.1 mg/kg body weight in the data set on blood lymphocytic cells (vascular administration). Besides, the activation at 1 µM on Human S1P4 receptor [1] is less than 20%. Further, the 50% effective concentration (EC50) on Human S1P1 receptor [2] is no more than 50 nM; on Human S1P1 receptor [3] it was ≤ 10 nM and 3.79 nM; at Human S1P4 receptor [4], no less than 2000 nM. Also, in the data set with heart rate, the “suppression of the heart rate” value is on record as “not recognized”.
